Experiments:
[1] = test system: hApoE2 Knock-in transgenic mice; experiment: Effects on triglycerides and cholesterol metabolism in vivo; set-up: species or system mouse
Description: Treatment of animals: hApoE2 knock-in transgenic mice were kept on a 12-hour light/dark cycle at a constant temperature of 20±3° C. After a 1 week acclimation, mice were separated in groups of 6 animals selected such that the distribution of their body weight and plasmatic lipid levels determined before the experiment were uniform. The test compounds were suspended in carboxymethylcellulose and administered by intragastric gavage at the indicated doses, once a day for 7 or 8 days. Animals had access to food and water ad libitum. At the end of the experiment the animals were weighed and sacrificed under anesthesia. Blood was collected on EDTA. Plasma was prepared by centrifugation at 3000 rpm for 20 minutes. Organs were harvested, frozen in liquid nitrogen and stored at −80° C. for subsequent analysis.
Measurement of serum lipids: Serum lipid concentrations (total cholesterol and triglycerides) were determined by a colorimetric assay (Boehringer, Mannheim, Germany) according to the supplier's instructions.

human PPARγ = biological target: T1, human PPARγ (Homo sapiens, UniProt P37231); experiment: PPARγ/Gal4 transactivation system; format: cell-based
T1 construct: expressed in transfected cells; host or cells: RK13 or COS-7
T1 sequence (P37231 238-503 limits assumed): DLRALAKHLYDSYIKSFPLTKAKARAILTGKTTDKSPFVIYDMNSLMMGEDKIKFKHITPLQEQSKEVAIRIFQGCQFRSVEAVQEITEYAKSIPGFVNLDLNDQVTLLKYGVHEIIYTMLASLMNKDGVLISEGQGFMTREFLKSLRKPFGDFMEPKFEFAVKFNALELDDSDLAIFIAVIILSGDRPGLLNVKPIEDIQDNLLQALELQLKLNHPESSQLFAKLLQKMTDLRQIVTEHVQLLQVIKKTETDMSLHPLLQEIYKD
Description: (§1) PPAR activation was tested in vitro in RK13 or COS-7 fibroblast cell lines by measuring the transcriptional activity of chimeras composed of the DNA binding domain of the yeast Gal4 transcription factor and the ligand binding domain of the different PPARs. These latter results were then confirmed in cell lines according to the following protocols.
(§2) Culture protocols: RK13 were from ECACC (Porton Down, UK) and were grown in DMEM medium supplemented with 10% (V/V) fetal calf serum, 100 U/ml penicillin (Gibco, Paisley, UK) and 2 mM L-glutamine (Gibco, Paisley, UK). COS-7 cells were from ATCC and were grown in DMEM medium supplemented with 10% (V/V) fetal calf serum, 1% penicillin/streptomycine (Biochrom, AG), 1% of amino acids (Gibco) and 1% sodium pyruvate (Gibco).
(§3) The culture medium was changed every two days. Cells were kept at 37° C. in a humidified 95% air/5% CO2 atmosphere.
(§4) Description of plasmids used for transfection: The plasmids Gal4(RE)_TkpGL3, pGal4-hPPARα, pGal4-hPPARγ, pGal4-hPPARδ and pGal4-φ have been described in the literature (Raspe E et al., 1999). The pGal4-hPPARα, pGal4-hPPARγ and pGal4-hPPARδ constructs were obtained by cloning into the pGal4-φ vector PCR-amplified DNA fragments corresponding to the DEF domains of the human PPARs nuclear receptors.
(§5) Transfection of RK13: RK13 cells were seeded in 24-well culture dishes at 5×10^4 cells/well and transfected for 2 hours with the reporter plasmid Gal4(RE)_TkpGL3 (50 ng/well), the expression vectors pGal4-φ, pGal4-hPPARα, pGal4-hPPARγ and pGal-hPPARδ (100 ng/well) and the transfection efficiency control vector pRL-CMV (1 ng/well) according to the previously described protocol (Raspe E, Madsen L, Lefebvre A M, Leitersdorf I, Gelman L, Peinado-Onsurbe J, Dallongeville J, Fruchart J C, Berge R and Staels B, 1999), then incubated for 36 hours with the test compounds. RK13 cells were incubated with the different compounds at concentrations of 10, 30 and 100 μM or 1, 10 and 100 μM for 24 hours. At the end of the experiment, the cells were lysed (Gibco, Paisley, UK) and luciferase activity was determined with a Dual-Luciferase™ Reporter Assay System kit (Promega, Madison, Wis., USA) according to the supplier's instructions. The protein content of the cell extracts was then measured with the Bio-Rad Protein Assay (Bio-Rad, Munich, Germany) as directed by the supplier.
(§6) Transfection of COS7: Cells in suspension are transfected, in the presence of 10% (V/V) fetal calf serum, with 150 ng of DNA per well with a pGal4-PPAR/Gal4(RE)_TkpGL3 ratio of 1/10. Cells are then seeded in 96 well plates (4×10^4 cells/well) and incubated for 24 hours at 37° C. Activation with compounds is performed on 24 hours at 37° C. in culture medium without serum. At the end of the activation period, cells are lysed and luciferase activity is determined, using the Steady Glow Luciferase Kit (Promega), according to the supplier's instructions.

human PPARα = biological target: T2, human PPARα (Homo sapiens, UniProt Q07869); experiment: PPARα/Gal4 transactivation system; format: cell-based; settings: for concentration at which maximal activity is observed: PPAR/Gal4 transactivation system
T2 construct: expressed in transfected cells; host or cells: RK13 or COS-7
T2 sequence (Q07869 239-466 limits assumed): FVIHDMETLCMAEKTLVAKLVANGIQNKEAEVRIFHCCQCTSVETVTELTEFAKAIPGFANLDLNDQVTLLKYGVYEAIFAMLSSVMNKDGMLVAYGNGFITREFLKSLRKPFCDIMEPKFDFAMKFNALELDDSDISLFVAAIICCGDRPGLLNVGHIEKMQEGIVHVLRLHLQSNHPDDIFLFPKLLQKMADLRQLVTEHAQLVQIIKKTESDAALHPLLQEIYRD
Description: as §1, §2, §3, §4, §5, §6

LDL = experiment: Protection against LDL oxidation by copper (conjugated diene formation); format: biochemical; settings: for lag phase of conjugated diene formation / rate of conjugated diene formation: 10^−4M
Description: LDL oxidation is an important alteration and plays a predominant role in the establishment and development of atherosclerosis (Jurgens G et al., 1987). […] Unless otherwise indicated, the reagents were from Sigma (St Quentin, France). LDL were prepared according to the method described by (Havel R J et al., 1955). The solutions of test compounds were prepared at 10^−2 M concentration in bicarbonate buffer (pH 9) and diluted in PBS to obtain final concentrations ranging from 0.1 to 100 μM for a total ethanol concentration of […]. Prior to oxidation, EDTA was removed from the LDL preparation by dialysis. Oxidation then took place at 30° C. by addition of 100 μl of 16.6 μM CuSO4 solution to 160 μL of LDL (125 μg protein/ml) and 20 μl of a test compound solution. The formation of dienes, the species under observation, was followed by measuring optical density at 234 nm in the samples treated with the compounds but in the presence or absence of copper. Optical density at 234 nm was measured every 10 minutes for 8 hours in a thermostated spectrophotometer (Tecan Ultra 380). The compounds were considered to have antioxidant activity when they induced a longer lag phase and reduced the rate of oxidation and the amount of dienes formed in comparison with the control sample.

HaCat cells = experiment: Antioxidant properties on cell cultures (carboxy-H2DCFDA fluorescence, AAPH stress), keratinocytes; format: cell-based, human; settings: AAPH 750 μM; for antioxidant properties on cell cultures (in words): 25 μM for 24 h
Description: (§7) The reduction in the intensity of the emitted fluorescence signal was determined in cells treated with the compounds in the following manner.
(§8) Prior to stress the cells with an oxidative agent such as AAPH (CAS number 2997-92-4), cells are incubated with compounds of interest at 25 μM for 24 h. Then the culture medium is discarded and cells are rinsed two times with PBS. Cells are then incubated 30 min at 37° C. with a cell-permeant indicator for reactive oxygen species that is nonfluorescent until the acetate groups are removed by intracellular esterases and oxidation occurs within the cell 5-(and-6)-carboxy-2′,7′-dichlorodihydrofluorescein diacetate (carboxy-H2DCFDA). The probes are prepared in PBS and incubated at the final concentration of 25 μM. After the incubation with the probe, cells are rinsed and incubated another 30 min with the oxidative solution containing AAPH at 750 μM in culture medium without phenol red and serum.
(§9) The fluorescence is then measured with a fluorimeter with the following wavelength, […].
(§10) Two different cell types have been tested with the inventive compounds. Human normal primary fibroblasts and HaCat cells which are a human keratinocyte cell line.

human PPARδ = biological target: T3, human PPARδ (Homo sapiens, UniProt Q03181); experiment: PPARδ/Gal4 transactivation system; format: cell-based
T3 construct: expressed in transfected cells; host or cells: RK13 or COS-7
T3 sequence (Q03181 211-439 limits assumed): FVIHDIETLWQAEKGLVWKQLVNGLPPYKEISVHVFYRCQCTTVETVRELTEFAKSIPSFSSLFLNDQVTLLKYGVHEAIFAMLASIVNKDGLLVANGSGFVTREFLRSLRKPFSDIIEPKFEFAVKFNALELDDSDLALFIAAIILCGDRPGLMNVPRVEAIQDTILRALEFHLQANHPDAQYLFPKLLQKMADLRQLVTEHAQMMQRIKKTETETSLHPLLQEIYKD
Description: as §1, §2, §3, §4, §5
Transfection of COS7: Cells in suspension are transfected, in the presence of 10% (V/V) fetal calf serum, with 150 ng of DNA per well with a pGal4-PPAR/Gal4(RE)_TkpGL3 ratio of 1/10. […] At the end of the activation period, cells are lysed and luciferase activity is determined, using the Steady Glow Luciferase Kit (Promega), according to the supplier's instructions.

[2] = test system: Human normal primary fibroblasts; experiment: Antioxidant properties on cell cultures (carboxy-H2DCFDA fluorescence, AAPH stress), fibroblasts; format: cell-based; settings: AAPH 750 μM; for antioxidant properties on cell cultures (in words): 25 μM for 24 h
Description: as §7, §8, §9, §10

[3] = 50 mg/kg/day for 7 or 8 days, FIGS. 4-13, 4-15, 4-17, 4-19
[4] = 50 mg/kg/day for 7 or 8 days, FIGS. 4-14, 4-16, 4-18, 4-20
[5] = PPAR/Gal4 transactivation system

SMILES	induction factor (luminescent signal relative to untreated cells) (human PPARα; 10 μM)	induction factor (luminescent signal relative to untreated cells) (human PPARα; 100 μM)	plasma cholesterol [1, 3]	plasma triglycerides [1, 4]	concentration at which maximal activity is observed (human PPARα)	antioxidant properties on cell cultures (in words) (HaCat cells)	activation of PPAR δ (in words) (human PPARδ)	antioxidant properties on cell cultures (in words) [2]	activation of PPAR γ (in words) (human PPARγ; [5])	other results
Cc1cc(/C=C/C(=O)c2ccc(Cl)cc2)cc(C)c1OC(C)(C)C(=O)O [Compound 17, 1-[4-chlorophenyl]-3-[3,5-dimethyl-4-carboxydimethylmethyloxyphenyl]prop-2-en-1-one]	85	13.8								cholesterol in lipoparticle subfraction (exclusion chromatography) ([1]; gavage 200 mg/kg for 7 days): decreased; plasma concentration of cholesterol ([1]; gavage 200 mg/kg for 7 days): decrease; plasma concentration of triglycerides ([1]; gavage 200 mg/kg for 7 days): decrease; triglycerides in lipoparticle subfraction (exclusion chromatography) ([1]; gavage 200 mg/kg for 7 days): decreased; maximum induction factor (human PPARγ; 10 μM): 25; lag phase of conjugated diene formation (LDL; FIG. 1-1, copper alone 111 minutes): 203 min; rate of conjugated diene formation (LDL; FIG. 1-2, copper alone 2): 1.7 nmol/min/mg of LDL
Cc1cc(/C=C/C(=O)c2ccc(C(F)(F)F)cc2)cc(C)c1OC(C)(C)C(=O)O [Compound 58, 1-[4-trifluoromethylphenyl]-3-[3,5-dimethyl-4-carboxydimethylmethyloxyphenyl]prop-2-en-1-one]			decrease	decrease	0.3 µM	antioxidant properties	can activate	antioxidant properties		concentration at which maximal activity is observed (human PPARγ; [5]): 1 µM
CCCCCCOc1ccc(C(=O)/C=C/c2cc(C)c(OC(C)(C)C(=O)O)c(C)c2)cc1 [Compound 33, 1-[4-hexyloxyphenyl]-3-[3,5-dimethyl-4-carboxydimethylmethyloxyphenyl]prop-2-en-1-one]	44	77				antioxidant properties		antioxidant properties		cholesterol in lipoparticle subfraction (exclusion chromatography) ([1]; 50 mg/kg/day for 8 days): decrease; plasma cholesterol ([1]; 50 mg/kg/day for 8 days): decrease; plasma triglycerides ([1]; 50 mg/kg/day for 8 days): decrease; triglycerides in lipoparticle subfraction (exclusion chromatography) ([1]; 50 mg/kg/day for 8 days): decrease; maximum induction factor (human PPARγ; 100 μM): 45.6; induction factor (luminescent signal relative to untreated cells) (human PPARα; 1 μM): 22; lag phase of conjugated diene formation (LDL; FIG. 1-9, copper alone 80 minutes): 247 min; rate of conjugated diene formation (LDL; FIG. 1-10, copper alone 1.9): 0.8 nmol/min/mg of LDL; maximum amount of conjugated dienes formed (LDL; FIG. 1-11, copper alone 298): 257 nmol per mg of LDL
CCCOc1ccc(C(=O)/C=C/c2cc(C)c(OC(C)(C)C(=O)O)c(C)c2)cc1 [Compound 70, 1-[4-propyloxyphenyl]-3-[3,5-dimethyl-4-carboxydimethylmethyloxyphenyl]prop-2-en-1-one]			decrease	decrease	0.03 µM		can also activate		can also activate	% of oxidative reduction versus control cells (HaCat cells; compounds at 25 μM for 24 h): 47%; % of oxidative reduction versus control cells ([2]; compounds at 25 μM for 24 h): 53%
Cc1cc(/C=C/C(=O)c2ccc(SC(F)(F)F)cc2)cc(C)c1OC(C)(C)C(=O)O [Compound 54, 1-[4-trifluoromethylthiophenyl]-3-[3,5-dimethyl-4-carboxydimethylmethyloxyphenyl]prop-2-en-1-one]			decrease	decrease	0.03 µM	antioxidant properties	can activate	antioxidant properties	can activate	
